According to ChEMBL document CHEMBL5584239, “Discovery of novel quinoline scaffold selective estrogen receptor degraders (SERDs) for treatment of ER positive breast cancer with enhanced antiproliferative bioactivity through immunogenic cell death (ICD) effects” (Eur J Med Chem, 2024):
Activity calls are given as the source filed them. The calls are words filed in the database; no cut-off is given here.

How the values were obtained:
[1] = target: T1, Estrogen receptor (Homo sapiens) (UniProt P03372); experiment: Induction of estrogen receptor degradation in human MCF7 cells incubated for 24 hrs by Western blot analysis; format: cell-based; settings: dose 0.001-10 µM
T1 sequence (whole entry): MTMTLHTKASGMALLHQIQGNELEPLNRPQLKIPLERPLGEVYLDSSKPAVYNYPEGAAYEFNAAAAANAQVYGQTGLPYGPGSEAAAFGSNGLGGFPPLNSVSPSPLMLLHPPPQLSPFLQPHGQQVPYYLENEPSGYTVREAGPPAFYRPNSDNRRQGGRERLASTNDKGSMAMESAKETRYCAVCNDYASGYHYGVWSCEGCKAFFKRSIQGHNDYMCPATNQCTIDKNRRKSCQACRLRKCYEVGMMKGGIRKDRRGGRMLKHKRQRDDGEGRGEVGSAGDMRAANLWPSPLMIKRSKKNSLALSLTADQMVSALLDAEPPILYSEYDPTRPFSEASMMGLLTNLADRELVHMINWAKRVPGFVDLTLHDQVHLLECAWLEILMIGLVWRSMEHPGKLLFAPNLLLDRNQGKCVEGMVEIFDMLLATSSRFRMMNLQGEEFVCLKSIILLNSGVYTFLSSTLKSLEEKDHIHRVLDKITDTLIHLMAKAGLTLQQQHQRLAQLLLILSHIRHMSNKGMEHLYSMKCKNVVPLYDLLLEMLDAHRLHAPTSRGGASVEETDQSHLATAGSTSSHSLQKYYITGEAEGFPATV

[2] = Tmax in rat at 20 mg/kg, po measured for 1 to 24 hrs by LC-MS analysis; format: ADME, organism-based; settings: in vivo, time 1-24 hrs
[3] = system: Uterus; experiment: Effect on immature Sprague-Dawley rat uterus assessed as reduction in uterine wet weight at 60 mg/kg, po qd for 2 days by H and E staining based analysis; format: functional, organism-based; settings: time 2.0 day
[4] = system: MCF7; experiment: Induction of immunogenic cell death in human MCF7 cells assessed as HMGB1 release from nucleus at 10 uM by fluorescence microscopy; format: functional, cell-based
[5] = C0 in rat at 5 mg/kg, iv measured for 1 to 24 hrs by LC-MS analysis; format: ADME, organism-based; settings: in vivo, time 1-24 hrs
[6] = system: MCF7; experiment: Induction of endoplasmic reticulum stress effect in human MCF7 cells assessed as change in calnexin level at 10 uM incubated for 24 hrs by immunofluorescence based analysis; format: functional, cell-based
[7] = target: T1, Estrogen receptor (Homo sapiens); experiment: Induction of estrogen receptor degradation in MG-132-treated human MCF7 cells at 10 uM incubated for 4 to 6 hrs by Western blot analysis; format: cell-based; settings: time 4-6 hrs
[8] = system: MCF7; experiment: Antiproliferative activity against human MCF7 cells incubated for 5 days by MTT assay; format: functional, cell-based; settings: MCF7, 120 h
[9] = Tmax in rat at 5 mg/kg, iv measured for 1 to 24 hrs by LC-MS analysis; format: ADME, organism-based; settings: in vivo, time 1-24 hrs
[10] = Half life in rat at 20 mg/kg, po measured for 1 to 24 hrs by LC-MS analysis; format: ADME, organism-based; settings: in vivo, time 1-24 hrs
[11] = Apparent volume of distribution in rat at 5 mg/kg, iv measured for 1 to 24 hrs by LC-MS analysis; format: ADME, organism-based; settings: in vivo, time 1-24 hrs, read-out: Vz
[12] = system: MCF7; experiment: Induction of endoplasmic reticulum stress effect in human MCF7 cells assessed as change in EIF-2alpha level at 10 uM incubated for 3 to 24 hrs by Western blot analysis; format: functional, cell-based; settings: time 3-24 hrs
[13] = system: MCF7; experiment: Induction of endoplasmic reticulum stress effect in human MCF7 cells assessed as change in ATF4 level at 10 uM incubated for 3 to 24 hrs by Western blot analysis; format: functional, cell-based; settings: time 3-24 hrs
[14] = Toxicity in nude mouse model xenografted with human MCF7 cells assessed as body weight loss at 60 mg/kg, po administered daily via gavage for 30 days; format: organism-based; settings: in vivo, 720 h, time 30 day
[15] = system: MCF7; experiment: Induction of endoplasmic reticulum stress effect in human MCF7 cells assessed as change in pEIF-2alpha level at 10 uM incubated for 3 to 24 hrs by Western blot analysis; format: functional, cell-based; settings: time 3-24 hrs
[16] = AUC (0 to t) in rat at 20 mg/kg, po measured for 1 to 24 hrs by LC-MS analysis; format: ADME, organism-based; settings: in vivo, time 1-24 hrs
[17] = system: MCF7; experiment: Induction of endoplasmic reticulum stress effect in human MCF7 cells assessed as change in calnexin level at 10 uM incubated for 3 to 24 hrs by Western blot analysis; format: functional, cell-based; settings: time 3-24 hrs
[18] = Toxicity in nude mouse model xenografted with human MCF7 cells assessed as morphological change in kidney at 60 mg/kg, po administered daily via gavage for 30 days by H and E staining based analysis; format: organism-based; settings: in vivo, 720 h, time 30 day
[19] = MRT (0 to t) in rat at 5 mg/kg, iv measured for 1 to 24 hrs by LC-MS analysis; format: ADME, organism-based; settings: in vivo, time 1-24 hrs
[20] = system: MCF7; experiment: Induction of immunogenic cell death in human MCF7 cells assessed as ATP release […] at 10 uM; format: functional, cell-based
[21] = system: MCF7; experiment: Induction of ROS production in human MCF7 cells incubated for 3 to 24 hrs by immunofluorescence analysis; format: functional, cell-based; settings: time 3-24 hrs
[22] = system: MCF7; experiment: Induction of cell cycle arrest at G0/G1 phase in human MCF7 cells at 10 uM incubated for 24 hrs by PI/RNase staining based flow cytometry (reference value: 53.5 +/- 1.96 %); format: functional
[23] = AUC (0 to infinity) in rat at 20 mg/kg, po measured for 1 to 24 hrs by LC-MS analysis; format: ADME, organism-based; settings: in vivo, time 1-24 hrs
[24] = Toxicity in nude mouse model xenografted with human MCF7 cells assessed as morphological change in liver at 60 mg/kg, po administered daily via gavage for 30 days by H and E staining based analysis; format: organism-based; settings: in vivo, 720 h, time 30 day
[25] = Toxicity in nude mouse model xenografted with human MCF7 cells assessed as morphological change in heart at 60 mg/kg, po administered daily via gavage for 30 days by H and E staining based analysis; format: organism-based; settings: in vivo, 720 h, time 30 day
[26] = system: MCF7; experiment: Induction of immunogenic cell death in human MCF7 cells assessed as CRT translocation at 10 uM by FITC staining based flow cytometry; format: functional
[27] = target: T1, Estrogen receptor (Homo sapiens); experiment: Induction of estrogen receptor degradation in estradiol-stimulated human MCF7 cells assessed as decrease in PGR mRNA level incubated for 24 hrs by RT-qPCR analysis; format: cell-based; settings: dose 1-10 µM
[28] = system: MCF7; experiment: Synergistic antiproliferative activity against human MCF7 cells at 0.1 to 10000 nM incubated for 5 days in presence of Ribociclib by MTT assay; format: functional, cell-based; settings: dose 0.1-10000 nM, time 5.0 day
[29] = MRT (0 to infinity) in rat at 20 mg/kg, po measured for 1 to 24 hrs by LC-MS analysis; format: ADME, organism-based; settings: in vivo, time 1-24 hrs
[30] = AUC (0 to t) in rat at 5 mg/kg, iv measured for 1 to 24 hrs by LC-MS analysis; format: ADME, organism-based; settings: in vivo, time 1-24 hrs
[31] = system: MCF7; experiment: Induction of endoplasmic reticulum stress effect in human MCF7 cells assessed as change in CHOP level at 10 uM incubated for 3 to 24 hrs by Western blot analysis; format: functional, cell-based; settings: time 3-24 hrs
[32] = Cmax in rat at 20 mg/kg, po measured for 1 to 24 hrs by LC-MS analysis; format: ADME, organism-based; settings: in vivo, time 1-24 hrs
[33] = system: MCF7; experiment: Induction of ROS production in human MCF7 cells measured after 6 to 24 hrs by flow cytometry; format: functional, cell-based; settings: time 6-24 hrs
[34] = Half life in rat at 5 mg/kg, iv measured for 1 to 24 hrs by LC-MS analysis; format: ADME, organism-based; settings: in vivo, time 1-24 hrs

For `CCc1ccccc1C(=O)c1cnc2cc(O)ccc2c1Oc1ccc(/C=C/C(=O)O)cc1`, which Activity [1] is on record?
The Activity was “Dose-Dependent Effect”.

And the Tmax [2]?
The Tmax was 15 min.

What about the Activity [3] of the same molecule?
Its Activity is “inactive”.

What about the Activity [4] of the same molecule?
The Activity was “Active”.

And the C0 [5]?
Its C0 is 31300 ng/mL.

What about the Activity [6] of the same molecule?
Its Activity is “Active”.

What about the Activity [7] of the same molecule?
Its Activity is “inactive”.

What about the IC50 [8] of the same molecule?
Its IC50 is 150 nM.

What about the Tmax [9] of the same molecule?
The Tmax was 4.98 min.

And the half-life [10]?
Its half-life is 191 min.

And the Vd [11]?
Its Vd is 2 L/kg.

And the Activity [12]?
Its Activity is “Active”.

What about the Activity [13] of the same molecule?
Its Activity is “Active”.

And the Activity [14]?
The Activity was “Non-Toxic”.

What about the Activity [15] of the same molecule?
Its Activity is “Active”.

And the AUC(0-t) [16]?
The AUC(0-t) was 628 ng·h/mL.

What about the Activity [17] of the same molecule?
Its Activity is “Active”.

And the Activity [18]?
The Activity was “Non-Toxic”.

And the MRT last [19]?
The MRT last was 7.2 min.

What about the Activity [20] of the same molecule?
The Activity was “Active”.

What about the Activity [21] of the same molecule?
The Activity was “inactive”.

What about the Activity [22] of the same molecule?
The Activity was 59.7%.

And the AUC(0-inf) [23]?
Its AUC(0-inf) is 649 ng·h/mL.

And the Activity [24]?
Its Activity is “Non-Toxic”.

And the Activity [25]?
Its Activity is “Non-Toxic”.

And the Activity [26]?
Its Activity is “Active”.

And the Activity [27]?
The Activity was “Dose-Dependent Effect”.

And the Activity [28]?
The Activity was “Active”.

And the MRT inf [29]?
Its MRT inf is 160 min.

What about the AUC(0-t) [30] of the same molecule?
The AUC(0-t) was 3050 ng·h/mL.

What about the Activity [31] of the same molecule?
Its Activity is “Active”.

And the Cmax [32]?
The Cmax was 501 ng/mL.

What about the Activity [33] of the same molecule?
The Activity was “inactive”.

And the half-life [34]?
The half-life was 51.8 min.
